Like-named read-outs stand apart in the source and are kept apart here.
Columns and labels:
[1] = for RFU change (Correlation analysis): probe-specific excitation λ, emission 545 nm; for carbohydrate can be detected and/or differentiated by the LCO: conclusion from change in signal magnitude and/or shift in λmax
Procedure, shortened: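 LCO probes at 3 μM mixed with serial two-fold dilutions of carbohydrate in dH2O (10–0.039 or 5–0.019 mg/ml, depending on carbohydrate), in triplicate. Excitation scanned 300–500 nm or fixed per probe (λmax or lowest background), emission at 545 nm. Detection taken as reproducible λmax/RFU shift vs no-carbohydrate control; RFU regressed linearly on concentration.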

[2] = Procedure, shortened: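 LCO probes at 3 μM mixed with serial two-fold carbohydrate dilutions in water (10–0.039 or 5–0.019 mg/ml), run in triplicate. Excitation scanned 300–500 nm with emission at 545 nm; detection based on reproducible λmax or RFU shift against the no-carbohydrate control, with linear regression of RFU on concentration.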
[3] = remark: listed apart in the source
Procedure, shortened: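 LCO probes (3 μM) were added to serial two-fold dilutions of carbohydrate suspensions in dH2O, with excitation scanned 300–500 nm and emission at 545 nm. Detection was a reproducible λmax and/or RFU change versus no-carbohydrate control. RFU was regressed linearly against concentration at the λmax or the lowest-background excitation.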

[4] = for RFU change (Correlation analysis): probe-specific excitation λ, emission 545 nm; for Gradient Parameters (gradient of regression line) / Linear relationship / Quality of Gradient: linear regression
Procedure, shortened: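 LCO probes at 3 μM mixed with serial twofold carbohydrate dilutions in dH2O (10–0.039 or 5–0.019 mg/ml, depending on carbohydrate). Excitation scanned 300–500 nm, emission read at 545 nm; detection defined as reproducible shift in λmax and/or RFU relative to negative control, with linear regression of RFU against concentration.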

[5] = for RFU change (Correlation analysis): probe-specific excitation λ, emission 545 nm; for carbohydrate can be detected and/or differentiated by the LCO: conclusion from change in signal magnitude and/or shift in λmax; remark: listed apart in the source
Procedure, shortened: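 Each LCO probe at 3 μM was added to two-fold serial dilutions of carbohydrate in dH2O (10–0.039 mg/ml for β-1,3-glucan, cellulose, chitin; 5–0.019 mg/ml for the others), run in triplicate. Excitation spectra were scanned 300–500 nm with emission at 545 nm. Detection was a reproducible λmax and/or RFU shift versus negative control, with linear regression of RFU against concentration.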

[6] = remark: listed apart in the source
Procedure, shortened: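 3 μM of each LCO probe was added to serial two-fold carbohydrate dilutions in water (10–0.039 or 5–0.019 mg/ml). Excitation spectra were scanned 300–500 nm with emission at 545 nm, in triplicate. Detection was defined as a reproducible shift in λmax and/or RFU versus negative control, with linear regression of RFU against concentration.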

[7] = Cellulobiose 5-0.019 mg/ml, 3 μM probe, spectral analysis, Excitation 300-500, Emission 545
[8] = amylose concentration vs RFU, linear regression
[9] = cellulobiose concentration vs RFU, linear regression
[10] = glucose concentration vs RFU, linear regression
[11] = sodium alginate concentration vs RFU, linear regression
[12] = Glycogen 5-0.019 mg/ml, 3 μM probe, spectral analysis, Excitation 300-500, Emission 545
[13] = Chitin 10-[…], 3 μM probe, spectral analysis, Excitation 300-500, Emission 545
[14] = cellulose concentration vs RFU, linear regression
[15] = chitin concentration vs RFU, linear regression
[16] = β-1,3-glucan concentration vs RFU, linear regression
[17] = Chondroitin Sulfate A 5-0.019 mg/ml, 3 μM probe, spectral analysis, Excitation 300-500, Emission 545
[18] = Chondroitin Sulfate A concentration vs RFU, linear regression

O=C([O-])C[C@H](NC(=O)Cc1cc(-c2cccs2)sc1-c1ccc(-c2sc(-c3cccs3)cc2CC(=O)N[C@@H](CC(=O)[O-])C(=O)[O-])s1)C(=O)[O-].[Na+].[Na+].[Na+].[Na+] [pHTA-Asp, penta Hydrogen Thiophene Acetic acid Aspartic acid]
RFU change (Correlation analysis) ([1]; Amylose 5-0.019 mg/ml, 3 μM probe): Increases
RFU change (Signal deviation with increasing [Carbohydrate]) ([1]; Amylose 5-0.019 mg/ml, 3 μM probe, spectral analysis, Excitation 300-500, Emission 545): Increases
carbohydrate can be detected and/or differentiated by the LCO ([1]; Amylose): can be detected and/or differentiated
RFU change (Correlation analysis) ([1]; Cellulobiose 5-0.019 mg/ml, 3 μM probe): Increases
RFU change (Signal deviation with increasing [Carbohydrate]) [1, 7]: Increases
λmax change [1, 7]: No change
carbohydrate can be detected and/or differentiated by the LCO ([1]; Cellulobiose): can be detected and/or differentiated
Gradient Parameters (gradient of regression line) [1, 8]: −7.6 ± 208.9
Quality of Gradient [1, 8]: Horizontal
Linear relationship [1, 9]: Significant
Quality of Gradient [1, 9]: Positive
Sensitivity ([1]; to amylose): Yes
Sensitivity ([1]; to cellulobiose): Yes
RFU change (Correlation analysis) ([2]; Glucose 5-0.019 mg/ml, 3 μM probe, probe-specific excitation λ, emission 545 nm): Increases
RFU change (Signal deviation with increasing [Carbohydrate]) ([2]; Glucose 5-0.019 mg/ml, 3 μM probe, spectral analysis, Excitation 300-500, Emission 545): Increases
carbohydrate can be detected and/or differentiated by the LCO ([2]; Glucose, conclusion from change in signal magnitude and/or shift in λmax): can be detected and/or differentiated
Gradient Parameters (gradient of regression line) [2, 10]: 625.1 ± 130.2
Linear relationship [2, 10]: Significant
Quality of Gradient [2, 10]: Positive
Sensitivity ([2]; to glucose): Yes
RFU change (Correlation analysis) ([3]; Sodium alginate 5-0.019 mg/ml, 3 μM probe, probe-specific excitation λ, emission 545 nm): Unclear
RFU change (Signal deviation with increasing [Carbohydrate]) ([3]; Sodium alginate 5-0.019 mg/ml, 3 μM probe, spectral analysis, Excitation 300-500, Emission 545): Unclear
Gradient Parameters (gradient of regression line) [3, 11]: 41.4 ± 59.6
Quality of Gradient [3, 11]: Horizontal
Sensitivity ([3]; to sodium alginate): No
RFU change (Correlation analysis) ([4]; Glycogen 5-0.019 mg/ml, 3 μM probe): Decreases
RFU change (Signal deviation with increasing [Carbohydrate]) [4, 12]: Decreases
λmax change [4, 12]: Redshift
carbohydrate can be detected and/or differentiated by the LCO ([4]; Glycogen, conclusion from change in signal magnitude and/or shift in λmax): can be detected and/or differentiated
RFU change (Correlation analysis) ([4]; Heparin 5-0.019 mg/ml, 3 μM probe): Unclear
RFU change (Signal deviation with increasing [Carbohydrate]) ([4]; Heparin 5-0.019 mg/ml, 3 μM probe, spectral analysis, Excitation 300-500, Emission 545): Unclear
Gradient Parameters (gradient of regression line) ([4]; glycogen concentration vs RFU): −665.8 ± 88.9
Linear relationship ([4]; glycogen concentration vs RFU): Significant
Quality of Gradient ([4]; glycogen concentration vs RFU): Negative
Gradient Parameters (gradient of regression line) ([4]; heparin concentration vs RFU): −3.2 ± 49.3
Linear relationship ([4]; heparin concentration vs RFU): Not Significant
Quality of Gradient ([4]; heparin concentration vs RFU): Horizontal
Sensitivity ([4]; to glycogen): Yes
Sensitivity ([4]; to heparin): No
RFU change (Correlation analysis) ([5]; Cellulose 10-[…], 3 μM probe): Unclear
RFU change (Signal deviation with increasing [Carbohydrate]) ([5]; Cellulose 10-[…], 3 μM probe, spectral analysis, Excitation 300-500, Emission 545): Unclear
RFU change (Correlation analysis) ([5]; Chitin 10-[…], 3 μM probe): Increases
RFU change (Signal deviation with increasing [Carbohydrate]) [5, 13]: Increases
λmax change [5, 13]: Redshift
carbohydrate can be detected and/or differentiated by the LCO ([5]; Chitin): can be detected and/or differentiated
Gradient Parameters (gradient of regression line) [5, 14]: 12.3 ± 64.4
Quality of Gradient [5, 14]: Horizontal
Gradient Parameters (gradient of regression line) [5, 15]: 3138 ± 491.2
Linear relationship [5, 15]: Significant
Quality of Gradient [5, 15]: Positive
Sensitivity ([5]; to cellulose): No
Sensitivity ([5]; to chitin): Yes
Sensitivity ([5]; to β-1,3-glucan): Yes
carbohydrate can be detected and/or differentiated by the LCO ([5]; β-1,3-Glucan): can be detected and/or differentiated
RFU change (Correlation analysis) ([5]; β-1,3-glucan 10-[…], 3 μM probe): Decrease
RFU change (Signal deviation with increasing [Carbohydrate]) ([5]; β-1,3-glucan 10-[…], 3 μM probe, spectral analysis, Excitation 300-500, Emission 545): Decrease
Gradient Parameters (gradient of regression line) [5, 16]: −792.9 ± 97.3
Quality of Gradient [5, 16]: Negative
RFU change (Correlation analysis) ([6]; Chondroitin Sulfate A 5-0.019 mg/ml, 3 μM probe, probe-specific excitation λ, emission 545 nm): Unclear
RFU change (Signal deviation with increasing [Carbohydrate]) [6, 17]: Unclear
λmax change [6, 17]: No change
Gradient Parameters (gradient of regression line) [6, 18]: −67.88 ± 90.0
Quality of Gradient [6, 18]: Horizontal
Sensitivity ([6]; to Chondroitin Sulfate A): No
